Measured values taken from publication PMC6057649, “Development of NanoLuc-PEST expressing Leishmania mexicana as a new drug discovery tool for axenic- and intramacrophage-based assays” (PLoS Neglected Tropical Diseases, 2018).
Like-named read-outs stand apart in the source and are kept apart here.

Test system: NanoLuc-PEST expressing L. mexicana axenic amastigotes
Assay: microbe, parasite or virus in culture
Assay type: cell-based
Details: for Relative Bioluminescence (%) / viability at 2 µM / viability at 10 µM: 72 hours, relative to DMSO only control, n = 4; for viability at 2 µM / viability at 10 µM: read-out: Relative Bioluminescence (%); for EC50: hit compounds from the axenic amastigote screen, S3 Table, read-out: EC50, Axenic Amastigotes
[1] = Leishmania mexicana, 2 µM compound
[2] = Leishmania mexicana, 10 µM compound

Structure (SMILES) | Relative Bioluminescence (%) (2 µM compound) | Relative Bioluminescence (%) (10 µM compound) | other results
CN1CCN(c2nccc3nc(-c4ccc(F)c(F)c4)[nH]c23)CC1 [MMV676260] | 69.43% | 85.22% | –
CCS(=O)(=O)N(Cc1ccco1)Cc1cc2ccc(C)cc2[nH]c1=O [MMV676398] | 115.47% | 84.49% | –
CNc1snc(C)c1C(=O)NCCOc1ccc(OC)cc1 [MMV688554] | 117.68% | 66.57% | –
CC(C)C(C(=O)Nc1ccc(S(=O)(=O)N(C)C)cc1)c1ccc(Cl)cc1 (centres unmarked) [MMV020391] | 89.71% | 17.09% | –
CC(=O)Oc1ccccc1C(=O)Nc1ncc([N+](=O)[O-])s1 [MMV688991, Nitazoxanide, reference compound] | – | – | viability at 2 µM [1]: 71.1%; viability at 10 µM [2]: 0.38%
COCC(C)NC(=O)CSc1ncnc2sc(-c3ccccc3)cc12 (centres unmarked) [MMV676536] | 84.93% | 103.25% | –
Cc1cc(C(=O)Nc2cnn(Cc3ccc(Cl)cc3Cl)c2)no1 [MMV009054] | 106.08% | 100.62% | –
COc1ccc(C2=NN(C3CCCCCC3)C(=O)C2(C)C)cc1OCCCCOc1ccc(-c2nn[nH]n2)cc1 [MMV690028] | 55.46% | 1.50% | –
NCCC[C@](N)(C(=O)O)C(F)F [MMV001625, α-Difluoromethylornithine, reference compound] | 69.72% | 81.23% | –
Cc1cc(Nc2ccncc2)n2nc(C)c(-c3ccccc3Cl)c2n1 [MMV016136] | 83.56% | 91.85% | –
Clc1ccc(Cl)c(CO[C@H]2CCCC[C@@H]2n2ccnc2)c1 [MMV676048] | 104.27% | 53.90% | –
Nc1ncnc2c1c(Cc1cccc3ccccc13)nn2CC1CCNCC1 [MMV676182] | 78.18% | 53.64% | –
COc1ccc(-c2nnc3ccc(-c4cccc(C(C)C)c4)cn23)cc1OC [MMV688313] | 55.91% | 18.47% | –
Cc1cc(OCC(=O)Nc2ccc(C(C)C)cc2)n(C)c(=O)c1C#N [MMV1198433] | 82.52% | 91.16% | –
COc1ccc(CCN2CCC(NCc3cccc(N(C)C)c3)CC2)cc1 [MMV011511] | 78.49% | 88.55% | –
O=C(C1CCN(c2nnc(-n3cccc3)s2)CC1)N1CCC(Cc2ccccc2)CC1 [MMV676478] | 93.56% | 56.18% | –
CC1=Nc2ccc(Cl)cc2C(c2ccccc2)N1CCNC(=O)CN(C)C (centres unmarked) [MMV688410] | 114.60% | 63.15% | –
COc1ccc(-c2cncc3ccc(C(=O)NCCCn4ccnc4)nc23)cc1 [MMV020670] | 96.09% | 97.66% | –
Cc1nn(C)c(C)c1NS(=O)(=O)c1c(Cl)cc(-c2ccnc(N3CCNCC3)c2)cc1Cl [MMV688180] | 98.32% | 81.67% | –
CCCn1c(CNc2ccccc2O)nc2ccccc21 [MMV676445] | 79.21% | 77.96% | –

Structure (SMILES) | Relative Bioluminescence (%) (2 µM compound) | Relative Bioluminescence (%) (10 µM compound) | other results
COc1cc(-c2cc(-c3ccc(S(C)(=O)=O)cc3)cnc2N)ccc1O [MMV010576] | 44.69% | 21.84% | –
NCCN(C(=O)c1ccc(Cl)cc1Cl)c1ccc(OCc2ccc(Cl)cc2)cc1 [MMV688371] | 95.57% | 61.94% | –
COc1ccc(C(=N)N)cc1-c1cn(-c2ccc(C(=N)N)cc2)nn1 [MMV675998] | 92.81% | 65.21% | –
CCCn1nnc(NC(=O)COc2ccc(C3CCCCC3)cc2)n1 [MMV676597] | 85.91% | 73.07% | –
Cc1ccc2c(c1C)NC(=O)C21NN=C(c2ccccc2)S1 (centres unmarked) [MMV019189] | -1.73% | -1.42% | EC50: 320 nM
O=C1N(Cc2cc3ccccc3s2)CC2CN(Cc3ccccc3)CCN12 (centres unmarked) [MMV084603] | 70.21% | 61.10% | –
COc1ccc(C2=NN(C3CCCCCC3)C(=O)[C@@H]3CC=CC[C@H]23)cc1OCCCCOc1ccc(-c2nn[nH]n2)cc1 [MMV690027] | 96.72% | 33.47% | –
CC(C(=O)N1CCCC1)N1CCN(S(=O)(=O)c2ccc(C(C)(C)C)cc2)CC1 (centres unmarked) [MMV020291] | 117.25% | 111.14% | –
O=C(Nc1ccnc(-c2cccnc2)n1)c1cc(C(F)(F)F)cc(C(F)(F)F)c1 [MMV019838] | 125.18% | 86.78% | –
CC(=O)N1CCc2cc3nc(C)cc(C)c3cc21 [MMV054312] | 120.77% | 116.16% | –
COc1ccc(C2(C(=O)Nc3ccc(Br)cc3)CCCC2)cc1 [MMV200748] | 64.99% | 61.91% | –
Brc1c(-c2ccc3c(c2)OCO3)nc2ncccn12 [MMV676377] | 78.14% | 74.59% | –
FC(F)(F)c1ccc(N(c2cccnc2)C2CCN(c3ccc(C(F)(F)F)cn3)CC2)cc1 [MMV689243] | 34.53% | 8.50% | –
Cc1cccnc1NC(=O)c1cccc(OCc2c(C)noc2C)c1 [MMV688793] | 74.59% | 52.13% | –
O=C1O[C@@H](CO)CN1c1cc(F)c(C2=CCN(Cc3ccccc3)CC2)c(F)c1 [MMV687729] | 76.47% | 62.67% | –
COc1cccc(-n2nnnc2S(=O)(=O)Cc2ccccc2)c1 [MMV676388] | 0.56% | 0.16% | EC50: 730 nM
O=C(Nc1nc(-c2ccccn2)cs1)c1cncn1-c1ccccc1 [MMV676512] | 15.66% | -0.58% | –
CCc1cc(=O)n(C)c(SC(C)C(=O)Nc2ccc(F)cc2)n1 (centres unmarked) [MMV688980] | 76.34% | 48.08% | –
COc1cc(NC(=O)Cc2nn(C)c(=O)c3ccccc23)ccc1Cl [MMV676053] | 106.26% | 78.76% | –
O=C(OCc1ccccc1)N1CCC(c2cc(-c3ccncc3)c(-c3ccc(F)cc3)[nH]2)CC1 [MMV688509] | 70.28% | 27.84% | –

Structure (SMILES) | Relative Bioluminescence (%) (2 µM compound) | Relative Bioluminescence (%) (10 µM compound) | other results
COc1cccc(CC(=O)N2CCC(n3c(C)nc4ccc(F)cc43)CC2)c1 [MMV020081] | 98.78% | 73.47% | –
CCOc1ccc2cc(-c3nn(C(C)(C)C)c(N)c3C(N)=O)cnc2c1 [MMV688853] | 34.19% | 42.96% | –
Nc1ncc(Br)cc1-c1nc2cc(Cl)cnc2[nH]1 [MMV676358] | 93.00% | 64.12% | –
COc1ccc(OC)c(NCc2ccc3nc(N)nc(N)c3c2Cl)c1 [MMV675968] | 100.09% | 86.04% | –
Cc1cc(NCC(C)C)c2[nH]nc(-c3ccccc3)c2n1 [MMV021375] | 68.90% | 58.94% | –
N#Cc1ccc(-c2cnc(N)c(-c3ccc(C(N)=O)cc3)n2)cc1 [MMV085499] | 98.08% | 54.27% | –
Cc1nc(-c2ccccn2)nc(N(C)CCc2ccccc2)c1Cl [MMV658988] | 32.93% | -2.26% | –
O=C(Nc1ccccc1-c1nc2c(C(=O)O)cccc2o1)c1ccccc1 [MMV676162] | 7.36% | -0.97% | EC50: 960 nM
Cc1ccc2nc(Cl)c(CNCc3cccs3)cc2c1 [MMV676439] | 83.45% | 95.86% | –
CC(=O)NCC1CN(c2ccc(-c3ccc(CO)cc3)c(F)c2)C(=O)O1 (centres unmarked) [MMV688508] | 98.16% | 65.29% | –
CC(=O)NC[C@H]1CN(c2ccc(N3CCOCC3)c(F)c2)C(=O)O1 [MMV687803, Linezolid, reference compound] | – | – | viability at 2 µM [1]: 76.5%; viability at 10 µM [2]: 111%
Oc1c(I)cc(I)c2cccnc12 [MMV002817, Iodoquinol, reference compound] | – | – | viability at 2 µM [1]: -1.49%; viability at 10 µM [2]: -1.46%; EC50 (Leishmania mexicana): 220 nM
CCOC(=O)NC(=O)c1ccsc1NC(=O)c1nc2ccccc2s1 [MMV090930] | 11.16% | -0.77% | –
COc1cccc2c(C)nc(N=C(N)N)nc12 [MMV000907] | 95.69% | 78.62% | –
CC1CCCN(C(=O)C(C)Nc2cc(Cl)ccc2N2CCOCC2)C1 (centres unmarked) [MMV020388] | 121.02% | 143.84% | –
CNC(=O)c1nn(C)c2c1C(C)(C)Cc1cnc(Nc3ccc(N4CCN(C)CC4)cc3)nc1-2 [MMV676602] | 91.95% | 77.62% | –
Cc1ccc2[nH]c3c(NCCN(C)C)ncnc3c2c1 [MMV006372] | 63.77% | 81.31% | –
Cc1cccc(Cn2ccc(NC(=O)c3ccc4c(c3)OCO4)n2)c1 [MMV676386] | 127.03% | 120.21% | –
CCCS(=O)(=O)N1CCC(CO)(Cc2ccccc2C(F)(F)F)CC1 [MMV001059] | 109.79% | 96.75% | –
